Assay results taken from US11377441B2, “Covalent inhibitors of KRAS” (Araxes Pharma LLC, priority 2017, dated 2022).

Each compound was assayed against T1, KRAS G12C 1-169, his-tagged protein, GDP-loaded (Homo sapiens, UniProt P01116, G12C) (assay: Biochemical assay: covalent modification of KRAS G12C measured by mass spectrometry (RapidFire/TOF or Q-Exactive)). Conditions: covalent binding to (modification of) KRAS G12C after a ten minute incubation period.
T1 construct: KRAS G12C 1-169, his-tagged protein, GDP-loaded
Assay type: binding
In short: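 GDP-loaded KRAS G12C 1-169 (his-tagged) at 2 μM or 0.5 μM in 20 mM Hepes, 150 mM NaCl, 1 mM MgCl2, incubated with compound at 100, 30 or 10 μM at room temperature for 10 min, 30 min, 2 h or 24 h, then quenched with formic acid. Intact-protein LC-MS, deconvolved; percent modification from modified versus unmodified protein.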

Row | SMILES | Binding %
1 | C=CC(=O)N1CCN(c2nc(N3CC(N(C)C)C3)nc3c(F)c(-c4c(C)ccc5[nH]nc(C6CC6)c45)c(Cl)cc23)CC1 (atropisomer, axis not shown) [Compound 103, (S)-1-(4-(6-chloro-7-(3-cyclopropyl-5-methyl-1H-indazol-4-yl)-2-(3-(dimethylamino)azetidin-1-yl)-8-fluoroquinazolin-4-yl)piperazin-1-yl)prop-2-en-1-one] | + (+ indicates binding activity greater than 0% and up to 50%)
2 | C=CC(=O)N1C[C@H](C)N(c2nc(N3CC(N(C)C)C3)nc3c(F)c(-c4c(C)ccc5[nH]nnc45)c(Cl)cc23)C[C@H]1C [Compound 94, 1-((2R,5S)-4-(6-chloro-2-(3-(dimethylamino)azetidin-1-yl)-8-fluoro-7-(5-methyl-1H-benzo[d][1,2,3]triazol-4-yl)quinazolin-4-yl)-2,5-dimethylpiperazin-1-yl)prop-2-en-1-one] | ++ (++ indicates binding activity from 50 to 80%)
3 | C=CC(=O)N1C[C@H](C)N(c2nc(OC[C@H]3CCCN3C)nc3c(F)c(-c4c(C)ccc5[nH]nc(C)c45)c(Cl)cc23)C[C@H]1C [Compound 179, 1-((2R,5S)-4-(6-chloro-7-(3,5-dimethyl-1H-indazol-4-yl)-8-fluoro-2-(((R)-1-methylpyrrolidin-2-yl)methoxy)quinazolin-4-yl)-2,5-dimethyllpiperazin-1-yl)prop-2-en-1-one] | +++ (+++ indicates binding activity greater than 80%)
4 | C=CC(=O)N1C[C@H](C)N(c2nc(N3CC(N(C)C)C3)nc3c(F)c(-c4cccc5occc45)c(Cl)cc23)C[C@H]1C [Compound 130, 1-((2R,5S)-4-(7-(benzofuran-4-yl)-6-chloro-2-(3-(dimethylamino)azetidin-1-yl)-8-fluoroquinazolin-4-yl)-2,5-dimethylpiperazin-1-yl)prop-2-en-1-one] | ++ (++ indicates binding activity from 50 to 80%)
5 | C=CC(=O)N1C[C@H](C)N(c2nc(OC3CCCOC3)nc3c(F)c(-c4c(C)ccc5cnn(C)c45)c(Cl)cc23)C[C@H]1C (stereo partly drawn) [Compound 225, 1-((2R,5S)-4-(6-chloro-7-(1,6-dimethyl-1H-indazol-7-yl)-8-fluoro-2-(tetrahydro-2H-pyran-3-yloxy)quinazolin-4-yl)-2,5-dimethylpiperazin-1-yl)prop-2-en-1-one] | ++ (++ indicates binding activity from 50 to 80%)
6 | C=CC(=O)N1[C@H](C)CN(c2nc(N3CC(N(C)C)C3)nc3c(F)c(-c4c(C)ccc5[nH]nc(C6CC6)c45)c(Cl)cc23)C[C@@H]1C (atropisomer, axis not shown) [Compound 134, 1-((2S,6R)-4-((R)-6-chloro-7-(3-cyclopropyl-5-methyl-1H-indazol-4-yl)-2-(3-(dimethylamino)azetidin-1-yl)-8-fluoroquinazolin-4-yl)-2,6-dimethylpiperazin-1-yl)prop-2-en-1-one] | +++ (+++ indicates binding activity greater than 80%)
7 | C=CC(=O)N1C[C@H](C)N(c2nc(N3CC(N(C)C)C3)nc3c(F)c(-c4c(C)ccc5ocnc45)c(Cl)cc23)C[C@H]1C [Compound 125, 1-((2R,5S)-4-(6-chloro-2-(3-(dimethylamino)azetidin-1-yl)-8-fluoro-7-(5-methylbenzo[d]oxazol-4-yl)quinazolin-4-yl)-2,5-dimethylpiperazin-1-yl)prop-2-en-1-one] | ++ (++ indicates binding activity from 50 to 80%)
8 | C=CC(=O)N1CCN(c2nc(OC[C@@H]3CCCN3C)nc3c(F)c(-c4c(C)ccc5cn[nH]c45)c(Cl)cc23)CC1CC#N (stereo partly drawn) [Compound 268, 2-(1-acryloyl-4-(6-chloro-8-fluoro-7-(6-methyl-1H-indazol-7-yl)-2-(((S)-1-methylpyrrolidin-2-yl)methoxy)quinazolin-4-yl)piperazin-2-yl)acetonitrile] | +++ (+++ indicates binding activity greater than 80%)
9 | C=CC(=O)N1C[C@H](C)N(c2nc(OCCN3CC(F)(F)C3)nc3c(F)c(-c4c(C)ccc5[nH]nc(N)c45)c(Cl)cc23)C[C@H]1C (atropisomer, axis not shown) [Compound 84, 1-((2R,5S)-4-((R)-7-(3-amino-5-methyl-1H-indazol-4-yl)-6-chloro-2-(2-(3,3-difluoroazetidin-1-yl)ethoxy)-8-fluoroquinazolin-4-yl)-2,5-dimethylpiperazin-1-yl)prop-2-en-1-one] | +++ (+++ indicates binding activity greater than 80%)
10 | C=CC(=O)N1C[C@@H](C)N(c2nc(N3CC(N(C)C)C3)nc3c(F)c(-c4c(C)ccc5[nH]nc(C6CC6)c45)c(Cl)cc23)C[C@@H]1C (atropisomer, axis not shown) [Compound 252, 1-((2S,5R)-4-((S)-6-chloro-7-(3-cyclopropyl-5-methyl-1H-indazol-4-yl)-2-(3-(dimethylamino)azetidin-1-yl)-8-fluoroquinazolin-4-yl)-2,5-dimethylpiperazin-1-yl)prop-2-en-1-one] | + (+ indicates binding activity greater than 0% and up to 50%)
11 | C=CC(=O)N1C[C@H](C)N(c2nc(OC[C@@H]3CCCN3C(C)C)nc3c(F)c(-c4c(C)ccc5[nH]nc(C6CC6)c45)c(Cl)cc23)C[C@H]1C [Compound 237, 1-((2R,5S)-4-(6-chloro-7-(3-cyclopropyl-5-methyl-1H-indazol-4-yl)-8-fluoro-2-(((S)-1-isopropylpyrrolidin-2-yl)methoxy)quinazolin-4-yl)-2,5-dimethylpiperazin-1-yl)prop-2-en-1-one] | ++ (++ indicates binding activity from 50 to 80%)
12 | C=CC(=O)N1CCN(c2nc(N3CC(N(C)C)C3)nc3c(F)c(-c4c(C)ccc5cnn(C)c45)c(Cl)cc23)C[C@H]1C (atropisomer, axis not shown) [Compound 144, 1-((R)-4-((R)-6-chloro-7-(1,6-dimethyl-1H-indazol-7-yl)-2-(3-(dimethylamino)azetidin-1-yl)-8-fluoroquinazolin-4-yl)-2-methylpiperazin-1-yl)prop-2-en-1-one] | +++ (+++ indicates binding activity greater than 80%)
13 | C=CC(=O)N1C[C@H](C)N(c2nc(N3CC(N(C)C)C3)nc3c(F)c(-c4c(C)ccc5[nH]nc(N)c45)c(Cl)cc23)C[C@H]1C (atropisomer, axis not shown) [Compound 90, 1-((2R,5S)-4-((S)-7-(3-amino-5-methyl-1H-indazol-4-yl)-6-chloro-2-(3-(dimethylamino)azetidin-1-yl)-8-fluoroquinazolin-4-yl)-2,5-dimethylpiperazin-1-yl)prop-2-en-1-one] | + (+ indicates binding activity greater than 0% and up to 50%)
14 | C=CC(=O)N1C[C@H](C)N(c2nc(N3CC(N(C)C)C3)nc3c(F)c(-c4c(C)cnc5[nH]ncc45)c(Cl)cc23)C[C@H]1C [Compound 56, 1-((2R,5S)-4-(6-chloro-2-(3-(dimethylamino)azetidin-1-yl)-8-fluoro-7-(5-methyl-1H-pyrazolo[3,4-b]pyridin-4-yl)quinazolin-4-yl)-2,5-dimethylpiperazin-1-yl)prop-2-en-1-one] | + (+ indicates binding activity greater than 0% and up to 50%)
15 | C=CC(=O)N1C2CCC1CN(c1nc(N3CC(N(C)C)C3)nc3c(F)c(-c4c(C)ccc5[nH]nc(N)c45)c(Cl)cc13)C2 [Compound 47, 1-((1R,5S)-3-(7-(3-amino-5-methyl-1H-indazol-4-yl)-6-chloro-2-(3-(dimethylamino)azetidin-1-yl)-8-fluoroquinazolin-4-yl)-3,8-diazabicyclo[3.2.1]oc-tan-8-yl)prop-2-en-1-one] | ++ (++ indicates binding activity from 50 to 80%)
